Active and inactive are the calls of the source. The rule behind the calls is not given here.
Assays:
[1] = target: T1, 5-hydroxytryptamine receptor 1A (Homo sapiens, UniProt P08908); test: Tested in vitro for the inhibition of [3H]8-OH-DPAT binding to 5-hydroxytryptamine 1A receptor, expressed in cloned CHO cells.; type: cell-based
T1 sequence (P08908 whole entry): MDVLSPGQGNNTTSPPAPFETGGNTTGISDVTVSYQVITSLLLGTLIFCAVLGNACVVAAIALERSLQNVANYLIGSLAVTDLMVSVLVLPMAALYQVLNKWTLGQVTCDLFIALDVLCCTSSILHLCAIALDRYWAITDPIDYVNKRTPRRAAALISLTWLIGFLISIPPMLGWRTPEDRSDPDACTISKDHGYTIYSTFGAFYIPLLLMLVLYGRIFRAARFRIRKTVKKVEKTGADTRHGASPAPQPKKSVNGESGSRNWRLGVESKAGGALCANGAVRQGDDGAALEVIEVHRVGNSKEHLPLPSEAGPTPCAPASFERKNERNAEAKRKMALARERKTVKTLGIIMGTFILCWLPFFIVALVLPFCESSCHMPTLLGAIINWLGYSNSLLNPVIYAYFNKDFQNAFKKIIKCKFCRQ

Rattus norvegicus [2] = test: The compound was evaluated in vivo for the 5-HTP accumulation at corpus striatum at 13.5 umol/kg; inactive in highest dose tested; type: functional, organism-based
Rattus norvegicus [3] = test: The compound was evaluated in vivo for the 5-HTP accumulation at hemispheres in reserpine pretreated rats at 13.5 umol/kg; inactive in highest dose tested; type: functional, organism-based
Rattus norvegicus [4] = test: The compound was evaluated in vivo for the 5-HTP accumulation at limbic regions at 13.5 umol/kg; inactive in highest dose tested; type: functional, organism-based; conditions: Limbic system
Rattus norvegicus [5] = test: The compound was evaluated in vivo for the DOPA accumulation at corpus striatum; type: functional
Rattus norvegicus [6] = test: The compound was evaluated in vivo for the DOPA accumulation at hemispheres in reserpine pretreated rats at 13.5 umol/kg; inactive in highest dose tested; type: functional, organism-based
Rattus norvegicus [7] = test: The compound was evaluated in vivo for the DOPA accumulation at limbic regions; type: functional; conditions: Limbic system
D(4) dopamine receptor [8] = target: T2, D(4) dopamine receptor (Homo sapiens, UniProt P21917); test: (§1) Tested in vitro for the inhibition of [3H]spiperone binding to Dopamine receptor D4, expressed in cloned CHO cells; Inactive; type: cell-based
T2 sequence (P21917 whole entry): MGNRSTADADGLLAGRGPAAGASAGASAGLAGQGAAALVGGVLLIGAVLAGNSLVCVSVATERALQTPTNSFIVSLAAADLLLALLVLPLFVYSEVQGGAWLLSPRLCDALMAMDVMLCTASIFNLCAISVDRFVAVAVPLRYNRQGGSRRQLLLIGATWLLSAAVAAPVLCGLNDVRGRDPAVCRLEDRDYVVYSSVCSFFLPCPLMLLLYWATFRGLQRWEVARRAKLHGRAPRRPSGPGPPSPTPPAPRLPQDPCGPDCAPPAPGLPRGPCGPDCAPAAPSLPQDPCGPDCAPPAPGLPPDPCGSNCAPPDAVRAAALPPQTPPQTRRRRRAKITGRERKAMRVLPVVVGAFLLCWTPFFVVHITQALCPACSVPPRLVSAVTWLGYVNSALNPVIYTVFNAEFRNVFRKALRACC

D(2) dopamine receptor = D(2) dopamine receptor (Rattus norvegicus, UniProt P61169); test: Tested in vitro for the inhibition of [3H]raclopride binding to Dopamine receptor D2 in rat striatum; type: tissue-based
Rattus norvegicus [9] = test: The compound was evaluated in vivo for the DOPA accumulation at hemispheres in reserpine pretreated rats at 50 umol/kg; inactive in the highest dose tested; type: functional, organism-based
Rattus norvegicus [10] = test: The compound was evaluated in vivo for the DOPA accumulation at limbic regions at 50 umol/kg; Partial effects in the highest dose tested; type: functional, organism-based; conditions: Limbic system
Rattus norvegicus [11] = test: The compound was evaluated in vivo for the DOPA accumulation at corpus striatum at 50 umol/kg; Partial effects in the highest dose tested; type: functional, organism-based
Rattus norvegicus [12] = test: The compound was evaluated in vivo for the 5-HTP accumulation at hemispheres in reserpine pretreated rats; type: functional
Rattus norvegicus [13] = test: The compound was evaluated in vivo for the 5-HTP accumulation at limbic regions; type: functional; conditions: Limbic system
Rattus norvegicus [14] = test: The compound was evaluated in vivo for the 5-HTP accumulation at corpus striatum; type: functional
D(3) dopamine receptor = D(3) dopamine receptor (Homo sapiens, UniProt P35462); test: biochemical
Description: Tested in vitro for the inhibition of [3H]U-86170 binding to Dopamine receptor D3, expressed in cloned CHO cells

[15] = target: Serotonin 2 (5-HT2) receptor (Homo sapiens, UniProt P41595+P28223+P28335); test: Tested in vitro for the inhibition of [3H]ketanserin binding to 5-hydroxytryptamine 2 receptor, expressed in cloned CHO cells.; type: cell-based
D(4) dopamine receptor [16] = target: T2, D(4) dopamine receptor; test: Tested in vitro for the inhibition of [3H]spiperone binding to Dopamine receptor D4, expressed in cloned CHO cells; type: cell-based
Rattus norvegicus [17] = test: The compound was evaluated in vivo for the DOPA accumulation at corpus striatum in non-pretreated rats at 50 umol/kg dose; type: functional
Rattus norvegicus [18] = test: The compound was evaluated in vivo for the DOPA accumulation at limbic regions at 50 umol/kg dose; type: functional, Limbic system
Rattus norvegicus [19] = test: The compound was evaluated in vivo for the locomotor activity in non-pretreated rats at 50 uM/kg dose; type: functional
Rattus norvegicus [20] = test: The compound was evaluated in vivo for the DOPA accumulation at corpus striatum at 12.5 umol/kg; Partial effects in the highest dose tested; type: functional, organism-based
Rattus norvegicus [21] = test: The compound was evaluated in vivo for the DOPA accumulation at hemispheres in reserpine pretreated rats at 12.5 umol/kg; Inactive; type: functional, organism-based
Rattus norvegicus [22] = test: The compound was evaluated in vivo for the DOPA accumulation at limbic regions at 12.5 umol/kg; Inactive; type: functional, organism-based; conditions: Limbic system
Rattus norvegicus [23] = test: The compound was evaluated in vivo for the DOPA accumulation at corpus striatum; partial effect at highest dose of 45 umol/kg; type: functional, organism-based
Rattus norvegicus [24] = test: The compound was evaluated in vivo for the DOPA accumulation at hemispheres in reserpine pretreated rats; partial effect at highest dose of 45 umol/kg; type: functional, organism-based
Rattus norvegicus [25] = test: The compound was evaluated in vivo for the DOPA accumulation at limbic regions; partial effect at highest dose of 45 umol/kg; type: functional, organism-based; conditions: Limbic system
Rattus norvegicus [26] = test: The compound was evaluated in vivo for the locomotpr activity in non-pretreated rats at 50 uM/kg dose; type: functional
[27] = target: T3, D(4) dopamine receptor (Homo sapiens) (UniProt P21917); test: as §1; type: cell-based
T3 sequence (whole entry): T2 sequence (P21917 whole entry)

Rattus norvegicus [28] = test: The compound was evaluated in vivo for the DOPA accumulation at hemispheres in reserpine pretreated rats at 50 umol/kg; Inactive; type: functional, organism-based
Rattus norvegicus [29] = test: The compound was evaluated in vivo for the 5-HTP accumulation at corpus striatum at 50 umol/kg; Inactive; type: functional, organism-based
Rattus norvegicus [30] = test: The compound was evaluated in vivo for the 5-HTP accumulation at hemispheres in reserpine pretreated rats at 50 umol/kg; Inactive; type: functional, organism-based
Rattus norvegicus [31] = test: The compound was evaluated in vivo for the 5-HTP accumulation at limbic regions at 50 umol/kg; Inactive; type: functional, organism-based; conditions: Limbic system
Rattus norvegicus [32] = test: The compound was evaluated in vivo for the 5-HTP accumulation at hemispheres in reserpine pretreated rats at 11 umol/kg; inactive in highest dose tested; type: functional, organism-based
Rattus norvegicus [33] = test: The compound was evaluated in vivo for the 5-HTP accumulation at limbic regions at 11 umol/kg; inactive in highest dose tested; type: functional, organism-based; conditions: Limbic system
Rattus norvegicus [34] = test: The compound was evaluated in vivo for the DOPA accumulation at hemispheres in reserpine pretreated rats at 11 umol/kg; inactive in highest dose tested; type: functional, organism-based
Rattus norvegicus [35] = test: The compound was evaluated in vivo for the 5-HTP accumulation at corpus striatum at 11 umol/kg; inactive in highest dose tested; type: functional, organism-based

Sequence of D(2) dopamine receptor (P61169 whole entry): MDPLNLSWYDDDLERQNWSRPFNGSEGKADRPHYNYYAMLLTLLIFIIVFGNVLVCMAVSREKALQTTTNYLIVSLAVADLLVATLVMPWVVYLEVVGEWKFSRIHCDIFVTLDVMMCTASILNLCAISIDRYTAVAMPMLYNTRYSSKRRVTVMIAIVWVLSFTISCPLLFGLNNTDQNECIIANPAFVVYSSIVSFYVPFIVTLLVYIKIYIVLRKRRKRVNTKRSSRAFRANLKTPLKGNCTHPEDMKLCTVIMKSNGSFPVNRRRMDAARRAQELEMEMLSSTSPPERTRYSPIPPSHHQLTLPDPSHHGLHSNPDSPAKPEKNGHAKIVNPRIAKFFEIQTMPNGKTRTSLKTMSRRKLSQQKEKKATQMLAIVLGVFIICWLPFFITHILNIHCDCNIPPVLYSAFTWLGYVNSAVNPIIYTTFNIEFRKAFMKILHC
Sequence of D(3) dopamine receptor (P35462 whole entry): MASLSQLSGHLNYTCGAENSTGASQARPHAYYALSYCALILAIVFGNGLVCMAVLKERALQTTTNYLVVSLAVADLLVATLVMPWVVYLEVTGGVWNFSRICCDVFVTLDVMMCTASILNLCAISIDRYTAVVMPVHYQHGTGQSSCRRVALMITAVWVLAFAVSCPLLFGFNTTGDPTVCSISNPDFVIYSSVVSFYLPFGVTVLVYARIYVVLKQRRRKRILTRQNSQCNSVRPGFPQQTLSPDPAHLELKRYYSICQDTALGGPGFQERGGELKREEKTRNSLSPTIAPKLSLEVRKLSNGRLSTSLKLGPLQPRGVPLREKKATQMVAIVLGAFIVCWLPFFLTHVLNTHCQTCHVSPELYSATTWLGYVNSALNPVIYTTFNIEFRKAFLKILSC

SMILES | Ki [1] [nM] | ED50 (Rattus norvegicus [5]) [µmol/kg] | ED50 (Rattus norvegicus [7]) [µmol/kg] | Ki (D(2) dopamine receptor) [nM] | ED50 (Rattus norvegicus [12]) [µmol/kg] | ED50 (Rattus norvegicus [13]) [µmol/kg] | ED50 (Rattus norvegicus [14]) [µmol/kg] | Ki (D(3) dopamine receptor) [nM] | Ki [15] [nM] | Ki (D(4) dopamine receptor [16]) [nM] | further results
CCCN(CCC)C1CCc2c(O)cccc2C1 (centres undefined) [5-OH-DPAT] | 344 | 0.009 | 0.011 | – | – | – | – | – | – | – | ED50 (Rattus norvegicus [2]): inactive; ED50 (Rattus norvegicus [3]): inactive; ED50 (Rattus norvegicus [4]): inactive; ED50 (Rattus norvegicus [6]): inactive
CCCN(CCC)C1CCc2ccc3ccoc3c2C1 (centres undefined) | 6.1 | – | – | 32 | 2.26 | 3.24 | 3.18 | 16.2 | – | – | Ki (D(4) dopamine receptor [8]): Not Active; Activity (Rattus norvegicus [9]): inactive; Activity (Rattus norvegicus [10]): Weak activity; Activity (Rattus norvegicus [11]): Weak activity
CCCN1CC[C@H]2c3c(O)cccc3CC[C@H]21 | – | – | – | 769 | – | – | – | > 4760 | 1637 | > 4070 | –
CCCN(CCC)[C@@H]1CCc2c(OC)cccc2[C@@H]1C | – | – | – | 15 | – | – | – | – | – | – | Saline control (Rattus norvegicus [17]): 370%; Saline control (Rattus norvegicus [18]): 245%; Saline control (Rattus norvegicus [19]): 70%
CCCN1CC[C@H]2c3c(ccc4ccoc34)CC[C@H]21 | 3.9 | – | – | 150 | 0.66 | 0.41 | 0.4 | 323 | 146 | > 4070 | Activity (Rattus norvegicus [20]): Weak activity; ED50 (Rattus norvegicus [21]): inactive; ED50 (Rattus norvegicus [22]): inactive
CCCN(CCC)C1CCc2cccc(O)c2C1 (centres undefined) [8-OH-DPAT] | – | – | – | – | 0.052 | 0.052 | 0.063 | – | – | > 1520 | Activity (Rattus norvegicus [23]): Weak activity; Activity (Rattus norvegicus [24]): Weak activity; Activity (Rattus norvegicus [25]): Weak activity
CCCN(CCC)[C@@H]1CCc2c(ccc3ccoc23)[C@@H]1C | 120 | – | – | 46 | – | – | – | 27 | 70 | 55 | Saline control (Rattus norvegicus [17]): 161%; Saline control (Rattus norvegicus [18]): 121%; Saline control (Rattus norvegicus [26]): 107%
CCCN(CCC)C1CCc2ccc3occc3c2C1 (centres undefined) | 7.8 | 13.1 | 4.47 | 64 | 6.08 | 4.56 | 2.12 | 45 | – | – | ED50 [27]: inactive; ED50 (Rattus norvegicus [28]): inactive
CCCN(CCC)C1CCc2c(ccc3ccoc23)C1 (centres undefined) | 210 | 0.98 | 0.74 | 18 | – | – | – | 56 | – | – | ED50 [27]: inactive; ED50 (Rattus norvegicus [29]): inactive; ED50 (Rattus norvegicus [30]): inactive; ED50 (Rattus norvegicus [31]): inactive; ED50 (Rattus norvegicus [28]): inactive
CCCN(CCC)C1CCc2ccc(O)cc2C1 (centres undefined) | 47 | 0.03 | 0.027 | – | – | – | – | – | – | 148 | ED50 (Rattus norvegicus [32]): inactive; ED50 (Rattus norvegicus [33]): inactive; ED50 (Rattus norvegicus [34]): inactive; ED50 (Rattus norvegicus [35]): inactive

Reference: ChEMBL document CHEMBL1129215, “(Dipropylamino)-tetrahydronaphthofurans: centrally acting serotonin agonists and dopamine agonists-antagonists” (Bioorg Med Chem Lett, 1997)
